Data set [1] concerns human neutrophils. Nature of the data set: Ca2+ influx (direct effect) in human neutrophils. The settings on record: Homo sapiens, Neutrophil; pure compounds; direct effect on [Ca2+]i; mean ± SD of three experiments. It is filed as cell-based. The text has this: (§1) For isolation of human neutrophils, blood was collected from healthy donors in accordance with a protocol approved by the Institutional Review Board at Montana State University (Protocol #MQ041017), as described previously. Isolated neutrophils were washed and resuspended in HBSS^–. Neutrophil preparations were routinely >95% pure and >98% viable. Neutrophils were obtained from multiple different donors (n = 8); however, the cells from different donors were never pooled during experiments.
(§2) Changes in intracellular Ca^2+ concentrations ([Ca^2+]i) in human neutrophils were measured with a FlexStation 3 scanning fluorometer (Molecular Devices), as previously described. To assess the direct effects of test compounds or pure essential oils on Ca^2+ influx, the compounds/oils were added to the wells (final concentration of DMSO was 1%), and changes in fluorescence were monitored (λex = 485 nm, λem = 538 nm) every 5 s for 240 s at room temperature after addition of the test compound. To evaluate inhibitory effects of the compounds on FPR1/FPR2-dependent Ca^2+ influx, the compounds were added to the wells (final concentration of DMSO was 1%) with cells (human neutrophils or FPR1/FPR2 HL60 cells). The samples were preincubated for 10 min, followed by addition of 5 nM fMLF (for human neutrophils or FPR1-HL60 cells) or 5 nM WKYMVM (for FPR2-HL60 cells). The maximum change in fluorescence, expressed in arbitrary units over baseline, was used to determine the agonist response. Responses were normalized to the response induced by 5 nM fMLF or 5 nM WKYMVM, which were assigned as 100%.
(§3) For all Ca^2+ influx experiments, curve fitting (at least five or six points) and calculation of median effective concentration values (EC50 or IC50) were performed by nonlinear regression analysis of the dose–response curves generated using Prism 7 (GraphPad Software, Inc., San Diego, CA, USA).

Data set [2] deals with human C20 microglial cells. The data set is described as follows: Ca2+ influx (direct effect) in C20 microglial cells. The format is cell-based. The settings on record: Homo sapiens; pure compounds; direct effect on [Ca2+]i; mean ± SD of three experiments. As for the experimental part:
(§4) Human C20 microglial cells were kindly provided by Dr. David Alvarez-Carbonell (Department of Molecular Biology and Microbiology, Case Western Reserve University, Cleveland, OH, USA); these are immortalized primary human microglial cells that maintain characteristics of primary microglial cells. C20 cells were grown at 37 °C and 5% CO2 in DMEM:F12 medium supplemented with 10% FBS, 2.5 mM L-glutamine, 110 mg/L sodium pyruvate, 15 mM HEPES, 100 μg/mL normocin, 100 μg/mL streptomycin, and 100 U/mL penicillin.
(§5) For analysis of Ca^2+ influx in C20 microglial cells, the cells were plated in 96-well black, clear bottom plates at 10^4 cells/well in DMEM/F12 medium containing 10% FBS. The cells were treated with 200 nM PMA for 24 h, and the medium was changed every day for 5 days. On day 5, the cells were loaded with FLIPR Calcium 5 (Molecular Devices) at a volume ratio of 1:1 for 30 min at 37 °C in the dark. The plates were then placed in a FlexStation 3 fluorometer, and basal fluorescence was measured (λex = 485 nm, λem = 538 nm). Essential oils or individual compounds of interest were added manually (final concentration of DMSO was 1%), and fluorescence was monitored for 2 min to assess the direct effects of these treatments on [Ca^2+]i. After a 10 min incubation at 37 °C, the fluorescence baseline was recorded again, and 10 µM fMLF was added to evaluate inhibitory effects on agonist-induced [Ca^2+]i. Responses were normalized to the response induced by 10 µM fMLF.
as §3

For a further data set, the target named is T1, FPR1-HL60 cells (Homo sapiens, UniProt P21462).
T1 construct: expressed in transfected cells
T1 sequence (P21462 1-350): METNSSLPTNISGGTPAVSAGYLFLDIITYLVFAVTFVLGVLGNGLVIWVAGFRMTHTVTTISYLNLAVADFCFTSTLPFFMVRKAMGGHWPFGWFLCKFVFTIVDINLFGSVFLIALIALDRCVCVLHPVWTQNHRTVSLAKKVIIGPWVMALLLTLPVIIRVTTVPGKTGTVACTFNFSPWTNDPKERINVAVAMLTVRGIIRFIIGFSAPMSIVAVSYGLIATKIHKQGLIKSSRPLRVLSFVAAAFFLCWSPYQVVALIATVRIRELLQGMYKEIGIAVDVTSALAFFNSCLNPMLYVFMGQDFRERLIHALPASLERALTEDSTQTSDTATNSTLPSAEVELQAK
The data set is described as follows: Inhibition of fMLF-induced Ca2+ influx in FPR1-HL60 cells. It is filed as cell-based. The note with it: pure compounds; 10 min preincubation; induced by 5 nM fMLF. As for the experimental part: (§6) Human promyelocytic leukemia HL60 cells stably transfected with FPR1 (FPR1-HL60 cells) or FPR2 (FPR2-HL60 cells) were kindly provided by Dr. Marie-Josephe Rabiet, INSERM, Grenoble, France. These cells were cultured in RPMI 1640 medium containing 10% heat-inactivated fetal calf serum, 10 mM HEPES, 100 μg/mL streptomycin, 100 U/mL penicillin, and G418 (1 mg/mL). G418 was removed before assays were performed.
as §2, §3

Another data set has as its target T2, FPR2-HL60 cells (Homo sapiens, UniProt P25090).
T2 construct: expressed in transfected cells
T2 sequence (P25090 1-351): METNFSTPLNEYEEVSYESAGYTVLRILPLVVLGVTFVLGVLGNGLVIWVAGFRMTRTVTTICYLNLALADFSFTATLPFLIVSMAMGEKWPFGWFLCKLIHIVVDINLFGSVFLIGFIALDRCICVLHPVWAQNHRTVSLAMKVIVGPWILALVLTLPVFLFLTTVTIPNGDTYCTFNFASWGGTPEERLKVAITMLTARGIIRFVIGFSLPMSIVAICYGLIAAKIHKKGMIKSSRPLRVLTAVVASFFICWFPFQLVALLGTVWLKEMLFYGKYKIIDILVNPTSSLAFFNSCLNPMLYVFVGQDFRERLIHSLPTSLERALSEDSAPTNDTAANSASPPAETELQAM
The data set is described as follows: Inhibition of WKYMVM-induced Ca2+ influx in FPR2-HL60 cells. The format is cell-based. The note with it: pure compounds; 10 min preincubation; induced by 5 nM WKYMVM. The method, then: as §6, §2, §3

For data set [3], the system named is human C20 microglial cells. The data set is described as follows: Inhibition of fMLF-induced Ca2+ influx in C20 microglial cells. The note with it: 10 min, pure compounds, 10 min incubation, induced by 10 μM fMLF. The format is cell-based. The method, then:
as §4, §5, §3

For data set [4], the system named is human neutrophils. The data set is described as follows: Inhibition of fMLF-induced Ca2+ influx in human neutrophils. The format is cell-based. The note with it: Homo sapiens, Neutrophil; pure compounds; 10 min preincubation; induced by 5 nM fMLF.
Excerpt: as §1, §2, §3

Data set [5] relates to human neutrophils. The data set is described as follows: Neutrophil chemotaxis assay (fMLF-induced). The format is cell-based. The note with it: Homo sapiens, Neutrophil; pure compounds; chemotaxis induced by 1 nM fMLF.
Excerpt: as §1
Human neutrophils were resuspended in HBSS^+ containing 2% (v/v) heat-inactivated fetal bovine serum (2 × 10^6 cells/mL), and chemotaxis was analyzed in 96-well ChemoTx chemotaxis chambers (Neuroprobe, Gaithersburg, MD), as described previously. Curve fitting (at least eight to nine points) and calculation of median effective concentration values (IC50) were performed by nonlinear regression analysis of the dose-response curves generated using GraphPad Prism 8.

Another data set relates to HL60 cells. Nature of the data set: Cytotoxicity assay (CellTiter-Glo) in HL60 cells. The note with it: oils up to 25 µg/mL, compounds up to 25 µM. The format is cell-based, human. The method, then:
Cytotoxicity of essential oils and pure compounds was analyzed in human promyelocytic HL60 cells using a CellTiter-Glo Luminescent Cell Viability Assay Kit (Promega), as described previously.
(In general: Cellular ATP, detected with luciferase, serves as a proxy for viable cell number.)

The next data set concerns the target T3, MAPKAPK2 (Homo sapiens, UniProt P49137).
T3 construct: purchased Eurofins Pharma Discovery, San Diego, CA, USA (KINOMEscan service)
The data set is described as follows: KINOMEscan kinase Kd determination, MAPKAPK2. It is filed as binding. The note with it: maximum concentration of 33 µM. As for the experimental part: (§7) KINOMEscan®® was used to determine the dissociation constant (Kd) of the indicated sesquiterpenes for selected kinases (Eurofins Pharma Discovery, San Diego, CA, USA). […] Assays were performed in duplicate, and the average mean value is shown.

Another data set addresses T4, JNK3 (Homo sapiens, UniProt P53779).
T4 construct: purchased Eurofins Pharma Discovery, San Diego, CA, USA (KINOMEscan service)
The data set is described as follows: KINOMEscan kinase Kd determination, JNK3. The format is binding. The settings on record: maximum concentration of 33 µM. The method, then: as §7

In another data set the target is T5, PIM1 (Homo sapiens, UniProt P11309).
T5 construct: purchased Eurofins Pharma Discovery, San Diego, CA, USA (KINOMEscan service)
Nature of the data set: KINOMEscan kinase Kd determination, PIM1. It is filed as binding. The settings on record: maximum concentration of 33 µM. As for the experimental part:
as §7

T3 sequence (P49137 whole entry): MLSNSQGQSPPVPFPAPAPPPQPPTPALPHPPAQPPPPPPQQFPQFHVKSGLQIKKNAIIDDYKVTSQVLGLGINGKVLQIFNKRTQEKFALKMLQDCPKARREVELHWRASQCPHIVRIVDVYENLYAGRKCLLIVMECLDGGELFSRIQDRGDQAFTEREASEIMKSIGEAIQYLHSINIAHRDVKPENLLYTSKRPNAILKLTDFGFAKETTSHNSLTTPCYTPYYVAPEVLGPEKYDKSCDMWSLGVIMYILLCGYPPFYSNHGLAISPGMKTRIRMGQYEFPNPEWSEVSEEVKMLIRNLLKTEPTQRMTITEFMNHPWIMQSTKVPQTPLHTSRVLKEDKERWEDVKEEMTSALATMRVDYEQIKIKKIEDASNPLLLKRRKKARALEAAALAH
T5 sequence (P11309 whole entry): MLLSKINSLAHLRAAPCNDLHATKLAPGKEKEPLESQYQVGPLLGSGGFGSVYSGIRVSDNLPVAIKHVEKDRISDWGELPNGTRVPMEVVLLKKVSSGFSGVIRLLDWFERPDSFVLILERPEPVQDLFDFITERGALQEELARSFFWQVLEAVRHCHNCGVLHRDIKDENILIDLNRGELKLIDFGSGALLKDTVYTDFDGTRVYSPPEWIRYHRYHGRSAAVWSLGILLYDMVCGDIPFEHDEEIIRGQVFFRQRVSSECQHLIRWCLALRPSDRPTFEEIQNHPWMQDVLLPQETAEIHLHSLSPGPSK
T4 sequence (P53779 whole entry): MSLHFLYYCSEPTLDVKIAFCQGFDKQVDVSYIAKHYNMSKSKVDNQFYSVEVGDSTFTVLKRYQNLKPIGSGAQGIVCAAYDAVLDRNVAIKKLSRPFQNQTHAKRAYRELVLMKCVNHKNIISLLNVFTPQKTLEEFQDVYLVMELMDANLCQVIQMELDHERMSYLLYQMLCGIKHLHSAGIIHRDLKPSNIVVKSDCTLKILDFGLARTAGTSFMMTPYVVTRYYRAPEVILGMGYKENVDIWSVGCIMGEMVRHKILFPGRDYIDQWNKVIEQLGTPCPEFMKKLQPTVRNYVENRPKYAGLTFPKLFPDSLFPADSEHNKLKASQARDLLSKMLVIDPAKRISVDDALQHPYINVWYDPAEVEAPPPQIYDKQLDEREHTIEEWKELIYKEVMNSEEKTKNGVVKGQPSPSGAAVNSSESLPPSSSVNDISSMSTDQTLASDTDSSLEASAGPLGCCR

In general, EC50 refers to the concentration giving half of the maximal effect. Read a high EC50 as lower potency in that assay. One may read the IC50 as the concentration needed to halve the response being measured. A lower IC50 goes with greater potency in that assay. As for `CC(C)=C1C/C=C(\C)CC/C=C(\C)CC1=O` [Germacrone], the values for the EC50 (in the data set with human neutrophils [1]; in data set [2]) were 24 ± 4.6 µM and 27.7 ± 2.5 µM, respectively. Besides, the IC50 against FPR1-HL60 cells was determined as 27.7 ± 2.9 µM; at FPR2-HL60 cells, 25 ± 7.2 µM; in data set [3], 10.7 ± 2.3 µM; in the data set on human neutrophils [4], 27.9 ± 8.9 µM; in the data set on human neutrophils [5], 8.5 ± 0.6 µM. In the data set on HL60 cells, the “Cell viability (cytotoxicity), 30 min incubation” value is on record as “minimal effects on cell viability”. Moreover, the “Binding affinity (Kd) toward MAPKAPK2” value at MAPKAPK2 is “did not observe any binding activity”. In addition, the “Binding affinity (Kd) toward JNK3” value at JNK3 is “did not observe any binding activity”. Further, the “Binding affinity (Kd) toward PIM1” value at PIM1 is “did not observe any binding activity”.

Take `C=C[C@]1(C)Cc2occ(C)c2C[C@H]1C(=C)C` [Curzerene]: the figures for the EC50 (in the data set on human neutrophils [1]; in data set [2]) were 37.6 ± 8.4 µM and 25.9 ± 5.2 µM, respectively. The IC50 at FPR1-HL60 cells was determined as 21.8 ± 6.1 µM; against FPR2-HL60 cells it was 16.7 ± 5.5 µM; in [3], 30.7 ± 4.4 µM; with human neutrophils [4], 11 ± 3.8 µM; in the data set on human neutrophils [5] it was 37.9 ± 2.2 µM. For the same compound, the “Cell viability (cytotoxicity), 30 min incubation” value with HL60 cells is recorded as “minimal effects on cell viability”. The “Binding affinity (Kd) toward MAPKAPK2” value on MAPKAPK2 was “did not observe any binding activity”. Besides, the “Binding affinity (Kd) toward JNK3” value at JNK3 is reported as “did not observe any binding activity”. On PIM1, the “Binding affinity (Kd) toward PIM1” value is given as “did not observe any binding activity”.

On to `C[C@@H]1CC[C@H]2[C@@H]1[C@H]1[C@@H](CC[C@]2(C)O)C1(C)C` [Viridiflorol, viridiflorol], for which the EC50 with human neutrophils [1] amounted to 6.8 ± 2.3 µM; in data set [2], 27.8 ± 4.6 µM. Moreover, the IC50 amounted to 19.5 ± 4.7 µM against FPR1-HL60 cells; 10.7 ± 3.8 µM at FPR2-HL60 cells; 22.6 ± 3.1 µM in data set [3]; 7.8 ± 2.3 µM in the data set with human neutrophils [4]; 18.3 ± 4.1 µM in the data set with human neutrophils [5]. Besides, the “Cell viability (cytotoxicity), 30 min incubation” value in the data set with HL60 cells was “minimal effects on cell viability”. For the same compound, in the data set on HL60 cells (2 h), the “Cell viability (cytotoxicity), 2 h incubation” value is given as “a little more cytotoxicity”. Moreover, the “Binding affinity (Kd) toward MAPKAPK2” value at MAPKAPK2 is “did not observe any binding activity”. On JNK3, the “Binding affinity (Kd) toward JNK3” value was “did not observe any binding activity”. Also, the “Binding affinity (Kd) toward PIM1” value at PIM1 is “did not observe any binding activity”.

The values above are taken from article PMC8232766, “Chemical Composition and Immunomodulatory Activity of Essential Oils from Rhododendron albiflorum” (Molecules, 2021).
